biological target: T1, Electrophorus electricus AChE (Electrophorus electricus, UniProt O42275); assay: biochemical; settings: not given
T1 construct: purchased Sigma-Aldrich, USA Type VI-S
Method: The AChE inhibitory activity of the synthesized compounds was evaluated by Ellman’s method using Electrophorus electricus AChE; donepezil hydrochloride and tacrine were used as the reference compounds.
AChE (Electrophorus electricus, Type VI-S, lyophilized powder) was purchased from Sigma-Aldrich, USA. Acetylthiocholine, 5,5′-dithiobis(2-nitrobenzoic acid), sodium dihydrogen phosphate, disodium hydrogen phosphate, and sodium hydrogen carbonate were obtained from Fluka, Switzerland. AChE inhibitory activity was […]
USA) based on Ellman’s method with slight modifications. For each assay, 200 μL of the assay medium containing 100 μL of 0.1 M phosphate buffer (pH 8), 20 μL of 3.3 mM 5,5′-dithiobis(2-nitrobenzoic acid) in 0.1 M phosphate buffer (pH 7) containing 6 mM NaHCO3, 20 μL of the test compounds at different concentrations in methanol, and 40 μL of 0.15 unit/mL AChE in phosphate buffer (pH 8) were incubated at 37 °C for 20 min. Subsequently, 20 μL of 5 mM acetylthiocholine iodide in water was added, and the absorbance was measured at 412 nm every 20 s for 3 min. The rate of each reaction was calculated by Microplate Manager software.
The blank percentage of inhibition of the tested compounds was determined by comparing the rate of the sample to the blank. The IC50 value was determined by nonlinear regression of the log inhibitor concentration versus the percentage of inhibition using GraphPad Prism6. Donepezil hydrochloride and tacrine were applied as the reference compounds. All samples were assayed in triplicate.

T1 sequence (O42275 24-633): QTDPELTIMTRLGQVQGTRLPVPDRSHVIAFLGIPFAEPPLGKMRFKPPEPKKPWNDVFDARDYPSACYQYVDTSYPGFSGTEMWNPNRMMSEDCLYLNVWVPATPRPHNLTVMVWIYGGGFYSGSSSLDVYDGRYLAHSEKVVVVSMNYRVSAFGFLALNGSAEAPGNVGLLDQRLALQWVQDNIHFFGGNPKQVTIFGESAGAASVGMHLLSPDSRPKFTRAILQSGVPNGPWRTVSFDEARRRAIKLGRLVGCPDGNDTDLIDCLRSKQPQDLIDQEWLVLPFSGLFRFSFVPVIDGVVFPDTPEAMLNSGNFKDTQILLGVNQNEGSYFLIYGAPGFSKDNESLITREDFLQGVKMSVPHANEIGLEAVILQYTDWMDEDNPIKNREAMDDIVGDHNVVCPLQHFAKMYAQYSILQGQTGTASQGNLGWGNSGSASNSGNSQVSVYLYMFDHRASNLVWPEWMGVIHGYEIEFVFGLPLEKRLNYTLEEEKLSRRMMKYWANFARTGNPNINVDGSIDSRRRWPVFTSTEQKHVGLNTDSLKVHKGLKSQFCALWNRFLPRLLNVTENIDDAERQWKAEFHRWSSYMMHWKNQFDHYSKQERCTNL

Row | SMILES | fold lower IC50 than donepezil hydrochloride | fold lower IC50 than tacrine
1 | COc1cc2cc(NC(=O)c3cc[n+](Cc4cccc(F)c4F)cc3)c(=O)oc2cc1OC.[Br-] [compound 9h] | 35 fold | 124 fold

same assay, conditions: concentration producing 50% inhibition of enzyme activity; triplicate independent experiments

Row | SMILES | IC50
2 | O=C(Nc1cc2ccccc2oc1=O)c1cc[n+](Cc2ccccc2)cc1 [compound 4a] | 71.9 ± 3.4 nM
3 | COc1cc2cc(NC(=O)c3cc[n+](Cc4ccccc4)cc3)c(=O)oc2cc1OC [compound 9a] | 12.5 ± 0.71 nM
4 | COc1cc2cc(NC(=O)c3cc[n+](Cc4ccccc4Cl)cc3)c(=O)oc2cc1OC [compound 9b] | 6.03 ± 0.18 nM
5 | COc1cc2cc(NC(=O)c3cc[n+](Cc4cccc(Cl)c4)cc3)c(=O)oc2cc1OC [compound 9c] | 11.5 ± 0.63 nM
6 | COc1cc2cc(NC(=O)c3cc[n+](Cc4ccc(Cl)cc4)cc3)c(=O)oc2cc1OC [compound 9d] | 293 ± 13.6 nM
7 | COc1cc2cc(NC(=O)c3cc[n+](Cc4ccccc4F)cc3)c(=O)oc2cc1OC [compound 9e] | 3.05 ± 0.28 nM
8 | COc1cc2cc(NC(=O)c3cc[n+](Cc4cccc(F)c4)cc3)c(=O)oc2cc1OC [compound 9f] | 5.04 ± 0.26 nM
9 | COc1cc2cc(NC(=O)c3cc[n+](Cc4ccc(F)cc4)cc3)c(=O)oc2cc1OC [compound 9g] | 5.31 ± 0.38 nM
10 | COc1cc2cc(NC(=O)c3cc[n+](Cc4cccc(F)c4F)cc3)c(=O)oc2cc1OC.[Br-] [compound 9h] | 1.53 ± 0.01 nM
11 | COc1cc2cc(NC(=O)c3cc[n+](Cc4c(F)cccc4F)cc3)c(=O)oc2cc1OC [compound 9i] | 2.43 ± 0.18 nM
12 | COc1cc2cc(NC(=O)Cc3cc[n+](Cc4ccccc4)cc3)c(=O)oc2cc1OC [compound 10a] | 1087.7 ± 0.05 nM

same assay, conditions: read-out: % Inhibition at concentration of 1 μM, 1 μM

Row | SMILES | inhibition at 1 µM
13 | Nc1cc2ccccc2oc1=O [compound 3, 3-aminocoumarin] | 12%
14 | O=C(Cc1ccncc1)Nc1cc2ccccc2oc1=O [compound 5] | < 10%
15 | O=C(Cc1cc[n+](Cc2ccccc2)cc1)Nc1cc2ccccc2oc1=O [compound 5a] | 10%
16 | COc1cc2cc(N)c(=O)oc2cc1OC [compound 8] | 5%
17 | COc1cc2cc(NC(=O)c3ccncc3)c(=O)oc2cc1OC [compound 9] | < 10%
18 | COc1cc2cc(NC(=O)Cc3ccncc3)c(=O)oc2cc1OC [compound 10] | < 10%

system: not listed separately; assay: Cytotoxicity against MRC-5 normal embryonic lung cell; assay type: cell-based; settings: human, MRC-5 normal embryonic lung cells; concentration of 50 μg/mL
From the text: For chlorine as a substituent, the activity followed the order of ortho > meta > para. […] For fluorine as a substituent, the activity also followed the order of ortho > meta ≈ para. […].

Row | SMILES | cytotoxicity at 50 μg/mL
19 | COc1cc2cc(NC(=O)c3cc[n+](Cc4cccc(F)c4F)cc3)c(=O)oc2cc1OC.[Br-] [compound 9h] | 0%

From publication PMC6204823, “Synthesis of 3-aminocoumarin-N-benzylpyridinium conjugates with nanomolar inhibitory activity against acetylcholinesterase” (Beilstein Journal of Organic Chemistry, 2018)
